Data: patent publication US20080312292A1, “Antipruritics” (priority 2002, published 2008)
pIC50, pKi: −log10 of the molar value. Like-named read-outs stand apart in the source and are kept apart here. Marks after values point to notes of the source that are not given here.

Tests used:
mouse CB2 receptor = molecular target: T1, mouse CB2 receptor (Mus musculus, UniProt P47936); assay: Binding inhibitory activity to mouse cannabinoid receptors, spleen membrane fraction; design: species or system C57BL/6 J mice; settings: mouse spleen membrane fraction; read-out: Binding Assay: Ki Spleen (CB2)
T1 construct: The membrane fractions of mouse brain and spleen that abundantly express CB1 and CB2 receptor, respectively; from tissue; host or cells: mouse spleen membrane fraction (C57BL/6 J)

[1] = test system: compound 48/80-induced pruritus; assay: Inhibitory effect on compound 48/80-induced pruritus in ICR strain mice; settings: 100 mg/kg (p.o.), ICR mice, compound 48/80-induced scratching
[2] = molecular target: T2, Human cannabinoid receptor CB1R (Homo sapiens, UniProt P21554); assay: Human cannabinoid receptor binding inhibition, [3H]CP55940, CB1R; settings: membranes of CB1R-expressing CHO cells, [3H]CP55940 0.5 nM; read-out: Ki CB1 receptor
T2 construct: expressed in transfected cells; host or cells: CHO cells
Protocol: (§1) The crude membrane fractions as Human cannabinoid receptor were then prepared from the CB1R or CB2R-expressing CHO cells. Receptor binding assay was performed by incubating the membranes with each test compound and 38,000 dpm [^3H]CP55940 (at a final concentration of 0.5 nM: NEN Life Science Products) in the assay buffer (50 mM Tris-HCl; 1 mM EDTA, 3 mM MgCl2, pH 7.4) containing 0.5% bovine serum albumin (BSA) for 2 hr at 25° C. The incubation mixture was filtered through 1% polyethylenimine (PEI)-treated GF/C glass filter and washed with 50 mM Tris-HCl (pH 7.4) containing 0.1% BSA. The radioactivity was then counted with a liquid scintillation counter. […] Ki value of test compound is calculated by obtained IC50 value and Kd value of [^3H]CP55940.

human CB1R = molecular target: T3, human CB1R (Homo sapiens, UniProt P21554); assay: cell-based; settings: CHO cells expressing human CB1R; read-out: cAMP Inhibition: IC50 CB1
T3 construct: expressed in transfected cells; host or cells: CHO cells

human CB2R = molecular target: T4, human CB2R (Homo sapiens, UniProt P34972); assay: Cannabinoid receptor-mediated suppression of forskolin-stimulated cAMP synthesis, CB2R; assay type: cell-based; settings: CHO cells expressing human CB2R
T4 construct: expressed in transfected cells; host or cells: CHO cells

mouse CB1 receptor = molecular target: T5, mouse CB1 receptor (Mus musculus, UniProt P47746); assay: Binding inhibitory activity to mouse cannabinoid receptors, brain membrane fraction; design: species or system C57BL/6 J mice; settings: mouse brain membrane fraction; read-out: Binding Assay: Ki Brain (CB1)
T5 construct: The membrane fractions of mouse brain and spleen that abundantly express CB1 and CB2 receptor, respectively; from tissue; host or cells: mouse brain membrane fraction (C57BL/6 J)

[3] = molecular target: T6, Human cannabinoid receptor CB2R (Homo sapiens, UniProt P34972); assay: Human cannabinoid receptor binding inhibition, [3H]CP55940, CB2R; settings: membranes of CB2R-expressing CHO cells, [3H]CP55940 0.5 nM; read-out: Ki CB2 receptor
T6 construct: expressed in transfected cells; host or cells: CHO cells
Protocol: as §1

T4 sequence (P34972 whole entry): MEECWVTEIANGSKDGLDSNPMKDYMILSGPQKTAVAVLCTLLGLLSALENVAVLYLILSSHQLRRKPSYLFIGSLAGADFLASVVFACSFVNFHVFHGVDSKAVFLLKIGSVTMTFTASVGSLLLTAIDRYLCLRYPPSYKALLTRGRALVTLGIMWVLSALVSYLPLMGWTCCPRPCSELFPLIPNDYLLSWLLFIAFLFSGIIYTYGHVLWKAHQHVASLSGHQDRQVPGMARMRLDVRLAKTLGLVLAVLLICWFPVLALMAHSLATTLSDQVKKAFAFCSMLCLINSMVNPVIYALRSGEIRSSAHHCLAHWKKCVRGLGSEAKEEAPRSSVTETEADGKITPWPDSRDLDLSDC
T3 sequence (P21554 whole entry): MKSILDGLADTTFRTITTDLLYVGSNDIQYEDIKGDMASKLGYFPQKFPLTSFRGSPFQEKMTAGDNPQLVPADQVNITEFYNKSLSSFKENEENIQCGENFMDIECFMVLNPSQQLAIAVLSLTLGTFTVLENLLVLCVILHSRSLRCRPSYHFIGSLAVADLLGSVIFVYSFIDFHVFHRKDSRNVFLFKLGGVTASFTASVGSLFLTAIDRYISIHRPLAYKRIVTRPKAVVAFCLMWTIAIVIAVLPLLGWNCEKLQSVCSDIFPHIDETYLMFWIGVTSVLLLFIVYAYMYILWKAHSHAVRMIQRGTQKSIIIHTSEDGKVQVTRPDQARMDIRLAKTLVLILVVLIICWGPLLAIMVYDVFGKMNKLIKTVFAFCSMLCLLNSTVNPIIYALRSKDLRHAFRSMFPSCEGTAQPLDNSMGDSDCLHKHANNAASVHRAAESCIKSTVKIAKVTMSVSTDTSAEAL
T2 sequence (P21554 whole entry): as above
T1 sequence (P47936 whole entry): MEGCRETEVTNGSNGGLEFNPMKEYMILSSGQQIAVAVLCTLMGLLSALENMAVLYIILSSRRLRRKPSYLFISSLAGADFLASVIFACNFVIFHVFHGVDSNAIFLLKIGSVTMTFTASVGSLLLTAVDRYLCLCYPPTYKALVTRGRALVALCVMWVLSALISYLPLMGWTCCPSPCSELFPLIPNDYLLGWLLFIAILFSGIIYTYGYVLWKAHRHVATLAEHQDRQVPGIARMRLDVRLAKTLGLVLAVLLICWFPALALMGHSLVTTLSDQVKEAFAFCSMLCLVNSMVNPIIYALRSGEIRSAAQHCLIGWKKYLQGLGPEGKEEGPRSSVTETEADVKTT
T6 sequence (P34972 whole entry): as the sequence (P34972 whole entry) above
T5 sequence (P47746 whole entry): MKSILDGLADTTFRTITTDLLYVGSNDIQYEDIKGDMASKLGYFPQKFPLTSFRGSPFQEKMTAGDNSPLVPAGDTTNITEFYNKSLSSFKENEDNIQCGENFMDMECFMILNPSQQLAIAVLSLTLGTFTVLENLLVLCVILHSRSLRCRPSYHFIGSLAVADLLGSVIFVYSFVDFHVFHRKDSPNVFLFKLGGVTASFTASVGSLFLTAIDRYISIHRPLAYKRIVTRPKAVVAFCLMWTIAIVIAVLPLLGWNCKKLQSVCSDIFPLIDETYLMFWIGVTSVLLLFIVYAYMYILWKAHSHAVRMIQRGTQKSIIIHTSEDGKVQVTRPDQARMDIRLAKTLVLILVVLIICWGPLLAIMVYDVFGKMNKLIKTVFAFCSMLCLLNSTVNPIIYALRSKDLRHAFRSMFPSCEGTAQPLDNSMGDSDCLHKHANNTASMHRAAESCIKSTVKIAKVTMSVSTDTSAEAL

What does the source list for `CCCCn1c2c(cc(C(=O)NCc3ccccc3)c1=O)CCCCCC2` [Compound 4-101]?
pKi (mouse CB2 receptor): 9.22; Antipruritic Effect (%) [1]: 81** %; pKi [2]: 6.05; pIC50 (human CB1R): 7.22; pIC50 (human CB2R; forskolin-stimulated cAMP synthesis, read-out: CB2 receptor IC50): 8.85; pIC50 (human CB2R; read-out: cAMP Inhibition: IC50 CB2): 8.85; pKi (mouse CB1 receptor): 7.46; pKi [3]: 8.82
